Results taken from patent US20100330604A1, “QUANTIFICATION OF CHANGES IN THE DEGREES OF ORDER OF CELLULAR AND VIRAL MEMBRANES AND APPLICATIONS TO DIAGNOSIS, TREATMENT AND DRUG SCREENING” (priority 2007, published 2010).
Read-outs that look alike come from different tables or passages of the source.

How the values were obtained:
platelets [1] = experiment: Di-4-[…] fluorescence and Rf (675/575 nm) by flow cytometry on isolated platelets treated in vitro; type: cell-based
platelets [2] = experiment: Spectral flow cytometry of di-4-[…] stained platelets stimulated by soluble agonists; type: cell-based
platelets [3] = experiment: Di-4-ANEPPDHQ Rf by flow cytometry on platelets of hyperlipidemic patients before and after atorvastatin; type: in vivo, human; conditions: after 6-week atorvastatin 40 mg
platelets [4] = conditions: mean+/-SD
platelets [5] = conditions: all three patient groups; FIG. 19 panel B
platelets [6] = experiment: Shear Induced Platelet activation (SIPA): high Rf platelet subpopulation; type: cell-based
cells = experiment: Kinetics of apoptosis after addition of staurosoprine (di-4-[…] staining, flow cytometry); type: cell-based
Description: Cells are detected, identified and segregated according to their size using forward scatter (FSC) and granularity (SSC). A total of 5000-10000 particles are typically analyzed. The excitation light is provided by a 488 nm laser, but could be achieved with lasers having wavelengths between 400 and 500 nm, among other possibilities. The emission fluorescence associated with liquid ordered domains is acquired between 575+/−25 nm, but the bandwidth could be narrower or wider, for example contained between 500 and 600 nm. The emission fluorescence associated with liquid disordered domains is acquired between 675+/−25 nm, but the bandwidth could be narrower or wider, contained for example between 650 and 750 nm.
Amplifications and gains associated with both fluorescences are adjusted on calibrated fluorescent beads or on a control cell population to obtain a ratio of fluorescence and to allow increases or decreases of the fluorescences and of the ratio. The ratio of fluorescence (Rf) is determined for each particle analysed by computing the ratio between the fluorescence intensity at 675 nm and the fluorescence intensity at 575 nm. By plotting FSC or SSC as a function of Rf for all particles on a logarithmic scale graph, the percentage of apoptotic cells can be determined as being the percentage of cells in the studied population having a Rf higher than a control population.

platelets [7] = experiment: Di-4-[…] Rf by confocal fluorescent microscopy on platelets; type: cell-based; conditions: 10 mM, 37° C., 30 min; four donors; p=0.045
Procedure: Referring to FIG. 3, fluorescence intensities were measured by confocal fluorescent microscopy and flow cytometry on control platelets, cholesterol depleted platelets (10 mM Methyl-β-cyclodextrin, 37° C., 30 min) and cholesterol enriched platelets (2 mM Cholesterol-MCD complex, 37° C., 30 min).
A META confocal fluorescence microscope system (Zeiss, Toronto) was used to measure the intensities of fluorescence between 534 to 599 nm and between 650 to 684 nm allowing calculating the fluorescence ratio (Rf) prepared according as described hereinabove. Consistently with previous published data on neutrophils (Jin L et al. Biophys J; 2006), the Rf was higher after depletion compared to control platelets (measures on at least 5 platelets of four different donors; p=0.045) (Panel A).

P-selectin = experiment: Expression of platelet activation marker P-selectin on washed platelets; type: cell-based; conditions: 10 mM, 30 minutes, room temperature; after 10 μM TRAP or 50 μM A23187
[8] = system: activated GpIIbIIIa receptors; experiment: Activation of the activated GpIIbIIIa receptors on washed platelets; type: cell-based; conditions: 10 mM, 30 minutes, room temperature; after 10 μM TRAP or 50 μM A23187
[9] = 10 mM, room temperature, during incubation, N=3

Q: Which results are given for `CNc1ccc2oc(C[C@H]3O[C@@]4(CC[C@H]3C)O[C@H]([C@H](C)C(=O)c3ccc[nH]3)[C@H](C)C[C@H]4C)nc2c1C(=O)O` [A23187]?
A: Rf vs. non activated platelets incubated with TBS (platelets [1]; agonist: 10 μM TRAP or 50 μM A23187, p<0.05): significantly increased; fluorescence intensities between 515 and 600 nm (more ordered phases) upon activation (platelets [2]): decrease

Q: How did the “Rf (MLO in platelets)” value (platelets [3]; 20 hyperlipidemic patients, compared value 9.2+/-0.1, p=0.01) turn out when `CC(C)c1c(C(=O)Nc2ccccc2)c(-c2ccccc2)c(-c2ccc(F)cc2)n1CC[C@@H](O)C[C@@H](O)CC(=O)O` [atorvastatin] was run?
A: The value was 8.8+/−0.1.

Q: And the “effects of the cholesterol depletion on the MLO (Rf)” value (platelets [3]; compared value 12.8+/-0.5, p=0.09)?
A: Its value is 11.7+/−0.2.

Q: Which “ratio of fluorescence (Rf) after administration of clopidogrel” value (“ratio of fluorescence (Rf) … of clopidogrel” below) (platelets [4]; Group A: clopidogrel 300 mg the day before + 75 mg the morning of the procedure, before 8.80+/-0.2, p<0.001) does the source give for `COC(=O)[C@H](c1ccccc1Cl)N1CCc2sccc2C1` [clopidogrel] here?
A: The value was 8.68+/−0.22.

Q: And the “ratio of fluorescence (Rf) … of clopidogrel” value (platelets [4]; Group B: clopidogrel 600 mg the morning of (2 hours before) the procedure, before 8.90+/-0.24, p=0.006)?
A: Its value is 8.77+/−0.27.

Q: And the “ratio of fluorescence (Rf) … of clopidogrel” value (platelets [4]; Group C: clopidogrel 600 mg the day before and 600 mg the morning of the procedure, before 8.69+/-0.29, p=0.88)?
A: Its value is 8.69+/−0.21.

Q: What about the “platelet sub-population (Population 2), about 0.46% of platelets before treatment” value (platelets [5]) of the same molecule?
A: Its value is “inhibited”.

Q: With `C=C1[C@@H](C)[C@H]2[C@H](Cc3ccccc3)NC(=O)[C@]23[C@H](OC(C)=O)/C=C/[C@@](C)(O)C(=O)[C@@H](C)C/C=C/[C@H]3[C@@H]1O` [cytochalasin D] as the molecule, how does the “generation of the high Rf platelet population during the shear treatment” value (platelets [6]) read?
A: Its value is “abrogated”.

Q: With `CCCCC[C@@H](O)[C@H]1C(=O)O[C@H](C)[C@@H](O)/C=C/C=C/C=C/C=C/C=C(\C)[C@@H](O)C[C@H](O)C[C@H](O)C[C@H](O)C[C@H](O)C[C@H](O)C[C@@H]1O` [filipin] as the molecule, how does the “Rf measured by flow cytometry” value (platelets [1]; platelets, 30 minutes at 37° C., different concentrations, N=5) read?
A: The value was “dose-dependency”.

Q: For `CN[C@@H]1C[C@H]2O[C@@](C)([C@@H]1OC)n1c3ccccc3c3c4c(c5c6ccccc6n2c5c31)C(=O)NC4` [staurosoprine], which “total proportion of intact cells after induction of apoptosis” value (cells; FIG. 17 panel G) is on record?
A: The value was “decreases regularly”.

Q: What about the “time at which the concentration in microparticles is maximal” value (cells; FIG. 17 panel H) of the same molecule?
A: The value was 24 h.

Q: For Methyl-β-cyclodextrin, which “fluorescence intensity (575 and 675 nm) versus control undepleted platelets” value (platelets [1]; 10 mM, 37° C., 30 min, 10 μM di-4-ANEPPDHQ) is on record?
A: The value was “shifted to lower values”.

Q: And the “Rf vs. control platelets” value (platelets [1]; 10 mM, 30 minutes, room temperature, p<0.05 to p<0.001)?
A: The value was “increased”.

Q: What about the “time of cholesterol depletion after which the fluorescence ratio measurement is substantially stable” value (platelets [1]; 10 mM, room temperature) of the same molecule?
A: The value was 30 min.

Q: And the “fluorescence associated to the more ordered membrane (575 nm)” value (platelets [1]; [9])?
A: Its value is “decreased”.

Q: What about the “fluorescence emitted at 675 nm” value (platelets [1]; [9]) of the same molecule?
A: Its value is “remained stable”.

Q: What about the “ratio of fluorescence (Rf) during the incubation” value (platelets [1]; 10 mM, room temperature, N=3) of the same molecule?
A: Its value is “increased”.

Q: What about the “fluorescence ratio (Rf) calculated from flow cytometry data” value (platelets [1]; cholesterol depletion 10 mM, 37° C., 30 min, N=5) of the same molecule?
A: The value was “increased”.

Q: And the “Rf by confocal microscopy compared to control platelets” value (platelets [7])?
A: The value was “higher”.

Q: What about the “expression of platelet activation marker P-selectin” value (P-selectin) of the same molecule?
A: The value was “decreased”.

Q: And the “activation of the activated GpIIbIIIa receptors” value [8]?
A: Its value is “decreased”.

Q: What does the source list for thrombin?
A: fluorescence at wavelengths larger than 660 nm compared to controls (platelets [2]; 0.5 U/mL, 30 minutes at 37 C): increased significantly; fluorescence between 530 and 585 nm compared to controls (platelets [2]; 0.5 U/mL, 30 minutes at 37 C): decreased significantly; fluorescence intensities between 515 and 600 nm (more ordered phases) upon activation (platelets [2]; Thrombin 0.5 U/ml, A23187 10 μM, Thrombin 0.5 U/ml/Convulxin 500 ng/ml, FIG. 15): decrease
